Patent US20190119200A1, “TERTIARY AMIDES AND METHOD OF USE” (AbbVie Inc., priority 2016, published 2019)

Columns and labels:
[1] = system: LPA-induced MCP-1 in NRK-49F cells; assay: LPA-induced MCP-1 AlphaLISA assay; format: cell-based; conditions: Rattus norvegicus, final LPA 10 μM, 7 hours; for Emax: read-out: Maximum Inhibition
Method: Two days prior to the experiment, NRK-49F cells were plated at 8,000 cells/well in 100 μL of growth medium [DMEM (Life Technologies #11995) with 5% dFBS (Life Technologies #30067-334), 100 units/mL penicillin/streptomycin (Life Technologies #15140122)] in 96-well clear flat bottom polystyrene TC-treated microplate (Corning® #3599) and incubated in humidified 10% CO2 at 37° C. One day prior to the experiment, the cell medium was removed and serum free medium [100 μL/well, DMEM (Life Technologies #11995) with 0.1% fatty acid free BSA (Sigma #A6003)] was added with continued incubation in humidified 10% CO2 at 37° C. overnight. On the day of the assay, test compounds were 1:3 serially diluted in 100% DMSO using a BioTek Precision™ system and then transferred (equivalent volume of DMSO as controls) to a plate in serum free medium [DMEM with 0.1% fatty acid free BSA] using a Biomek® NX workstation to give a 2× compound solution. The cell culture medium was removed, and cells were pre-treated with 50 μL/well of 2× compound in serum free medium [DMEM with 0.1% fatty acid free BSA] at 37° C. for 30 minutes. Following the incubation, 50 μL/well of 20 μM LPA diluted in serum free medium [DMEM with 0.1% fatty acid free BSA] was added to the cells. Serum free medium [DMEM with 0.1% fatty acid free BSA] was used as substitution for low control wells while 20 µM LPA was added to high control wells and test compound wells. 200 µM LPA was added to EC100 wells. Final DMSO concentration was 1% in every well. Final LPA concentration in test compound wells and high control wells was 10 μM. […] After the incubation, cell supernatant was transferred to a new 96 well polypropylene plate (Greiner #651201) where it was sealed and stored at −80° C. On the detection day, 5 μL of thawed cell supernatant was transferred to a new white opaque 384-well microplate (Perkin Elmer #6007299). An AlphaLISA® mouse/rat CCL2/MCP1, Immunoassay Research kit (PerkinElmer #AL509F) was used. A mixture (20 μL/well) of AlphaLISA® Anti-Analyte Accept beads (10 μg/mL final) and Biotinylated Antibody Anti-Analyte (freshly prepared, 1 nM final) was added. The mixture in the wells was mixed and then incubated at room temperature for 1 hour. Then SA-Donor beads (25 μL/well, 40 μg/mL final) were added giving a final volume of 50 μL/well. The contents of the wells were mixed and then incubated at room temperature for 0.5 hour (protect from light). The plate was read using the default Envision™ Alpha protocol (PerkinElmer). IC50 values were calculated from curve fits of the ratio data using a four-parameter logistic Hill equation (Assay Explorer 3.3 Client).

[2] = biological target: T1, LPAR1 (Homo sapiens, UniProt Q92633); assay: LPAR1 FLIPR Assay; format: cell-based; conditions: U2OS cells stably expressing LPAR1, LPA (EC80), Calcium 6 FLIPR dye; for Emax: read-out: Maximum Inhibition
T1 construct: host or cells: U2OS
T1 sequence (Q92633 whole entry): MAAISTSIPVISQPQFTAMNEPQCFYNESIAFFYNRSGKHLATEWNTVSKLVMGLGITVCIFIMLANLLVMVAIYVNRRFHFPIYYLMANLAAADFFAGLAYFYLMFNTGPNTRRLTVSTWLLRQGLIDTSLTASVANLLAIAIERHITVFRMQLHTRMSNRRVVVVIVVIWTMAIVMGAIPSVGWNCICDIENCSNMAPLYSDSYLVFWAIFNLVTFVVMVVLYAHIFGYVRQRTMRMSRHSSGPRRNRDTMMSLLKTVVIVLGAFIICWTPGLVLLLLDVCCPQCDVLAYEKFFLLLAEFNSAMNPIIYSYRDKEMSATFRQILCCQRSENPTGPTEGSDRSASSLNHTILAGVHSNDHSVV
Method: U2OS cells stably expressing LPAR1 (Life Technologies #K1519A) were plated at 12000 cells/well in growth medium (McCoy's 5A medium(Life Technologies 16600-082)) with 10% dFBS (Life Technologies 26400-036), 0.1 mM non-essential amino acids, 25 mM HEPES, 1 mM sodium pyruvate, 1% penicillin/streptomycin, 50 μg/mL hygromycin, and 100 μg/mL Geneticin® in black-walled, clear-bottom 384-well plates (Corning #3683) and incubated in humidified 5% CO2 at 37° C. overnight. On the day of the assay, medium was removed and 30 μL of 5% Calcium 6 FLIPR dye in assay buffer-HBSS (Life Technologies #14025) containing 20 mM HEPES (Life Technologies #15630-080) was added to the cells. Cells were incubated at 37° C. in the dark for 2 hours. Compounds were 3-fold serial diluted from 10 mM for 11-points using dimethyl sulfoxide. 1 μL of compound in DMSO was diluted in 82.3 μL assay buffer immediately before the assay. Using a FLIPR® TETRA® system, 15 μL of the (4×) compound solutions were first added to the cells, then 15 μL of LPA (EC80) diluted in of assay buffer supplemented with 0.1% BSA was added 3 minutes later to activate the receptor. Changes in fluorescence were measured at wavelengths of 515-575 nm over the course of the experimental run. IC50 values were calculated from curve fits of the ratio data using a four-parameter logistic Hill equation (Assay Explorer 3.3 Client).

SMILES | IC50 [1] [nM] | IC50 [2] [nM] | Emax [2] [%] | Emax [1] [%]
COc1cc(C(=O)N(CCCc2ccccc2)CC(=O)N[C@@H](Cc2cccs2)C(=O)O)cc(OC)c1C [Example 47, N-(3,5-dimethoxy-4-methylbenzoyl)-N-(3-phenylpropyl)glycyl-3-thiophen-2-ylalanine] | 4700 | 79 | 88 | 58
COc1cc(C(=O)N(CCCCC(=O)NS(=O)(=O)C(F)(F)F)CCCc2ccccc2)cc(OC)c1C [Example 150, 3,5-dimethoxy-4-methyl-N-{5-oxo-5-[(trifluoromethanesulfonyl)amino]pentyl}-N-(3-phenylpropyl)benzamide] | 2030 | 45 | 73 | 67
COc1cc(C(=O)N(CCCOC(=O)NS(C)(=O)=O)CCCc2ccccc2)cc(OC)c1C [Example 186, 3-[(3,5-dimethoxy-4-methylbenzoyl)(3-phenylpropyl)amino]propyl (methanesulfonyl)carbamate] | 7050 | 65 | 83 | 54
CNS(=O)(=O)NC(=O)CCCCN(CCCc1ccccc1)C(=O)c1cc(OC)c(C)c(OC)c1 [Example 70, 3,5-dimethoxy-4-methyl-N-{5-[(methylsulfamoyl)amino]-5-oxopentyl}-N-(3-phenylpropyl)benzamide] | 637 | 56 | 98 | 90
CCCCC(CCCN(CCCc1ccccc1)C(=O)c1cc(OC)c(C)c(OC)c1)C(=O)O (stereo not drawn) [Example 93, 2-{3-[(3,5-dimethoxy-4-methylbenzoyl)(3-phenylpropyl)amino]propyl}hexanoic Acid] | 819 | 43 | 96 | 84
COc1cc(C(=O)N(CCCCC(=O)O)CCCCc2ccccc2)cc(OC)c1C [Example 96, 5-[(3,5-dimethoxy-4-methylbenzoyl)(4-phenylbutyl)amino]pentanoic Acid] | > 10000 | 19900 | 62 | 52
COc1cc(C(=O)N(CCCc2ccccc2)CCCC(C)(C)C(=O)NS(C)(=O)=O)cc(OC)c1C [Example 162, N-{5-[(methanesulfonyl)amino]-4,4-dimethyl-5-oxopentyl}-3,5-dimethoxy-4-methyl-N-(3-phenylpropyl)benzamide] | 7 | 76 | 100 | 94
COc1cc(OC)cc(C(=O)N(CCCCC(=O)O)CCCc2c(F)cccc2F)c1 [Example 137, 5-{[3-(2,6-difluorophenyl)propyl](3,5-dimethoxybenzoyl)amino}pentanoic Acid] | > 10000 | 92 | 64 | 28
COc1cc(C(=O)N(CCCCC(=O)NS(=O)(=O)C(C)C)CCCc2ccccc2)cc(OC)c1C [Example 124, 3,5-dimethoxy-4-methyl-N-{5-oxo-5-[(propane-2-sulfonyl)amino]pentyl}-N-(3-phenylpropyl)benzamide] | 1150 | 59 | 92 | 88
CCCCC(C)(CCCN(CCCc1ccccc1)C(=O)c1cc(OC)c(C)c(OC)c1)C(=O)O (stereo not drawn) [Example 97, 2-{3-[(3,5-dimethoxy-4-methylbenzoyl)(3-phenylpropyl)amino]propyl}-2-methylhexanoic Acid] | 36 | 116 | 97 | 94
COc1cc(C(=O)N(CCCc2ccccc2)CCCC(C)C(=O)NS(C)(=O)=O)cc(OC)c1C (stereo not drawn) [Example 161, N-{5-[(methanesulfonyl)amino]-4-methyl-5-oxopentyl}-3,5-dimethoxy-4-methyl-N-(3-phenylpropyl)benzamide] | 79 | 99 | 99 | 88

Continued, in another order:

IC50 [1] [nM] | IC50 [2] [nM] | Emax [2] [%] | SMILES | Emax [1] [%]
> 10000 | > 30000 | 7 | COc1ccc(C(=O)N(CCCCC(=O)O)CCCc2ccccc2)cc1 [Example 84, 5-[(4-methoxybenzoyl)(3-phenylpropyl)amino]pentanoic Acid] | 31
783 | 71 | 98 | COc1cc(OC)c([N+](=O)[O-])c(C(=O)N(CCCCC(=O)O)CCCc2ccccc2)c1 [Example 19, 5-[(3,5-dimethoxy-2-nitrobenzoyl)(3-phenylpropyl)amino]pentanoic Acid] | 84
5320 | 45 | 87 | COc1cc(C(=O)N(CCCCC(=O)O)CCCc2ccccc2)cc2oc(C)cc12 [Example 31, 5-[(4-methoxy-2-methyl-1-benzofuran-6-carbonyl)(3-phenylpropyl)amino]pentanoic Acid] | 68
3590 | 78 | 85 | COc1ccc(C2(C(=O)N(CCCCC(=O)O)CCCc3ccccc3)CC2)cc1Cl [Example 107, 5-{[1-(3-chloro-4-methoxyphenyl)cyclopropane-1-carbonyl](3-phenylpropyl)amino}pentanoic Acid] | 71
> 10000 | > 30000 | 13 | COc1ccc(C(=O)N(CCCCC(=O)O)CCCc2ccccc2)cc1F [Example 79, 5-[(3-fluoro-4-methoxybenzoyl)(3-phenylpropyl)amino]pentanoic Acid] | 36
> 9350 | 54 | 89 | COc1cc(C(=O)N(CCCCC(=O)O)CCCc2ccccc2)ccc1[N+](=O)[O-] [Example 22, 5-[(3-methoxy-4-nitrobenzoyl)(3-phenylpropyl)amino]pentanoic Acid] | 42
> 10000 | > 30000 | 14 | COc1ccc(C(C)(C)C(=O)N(CCCCC(=O)O)CCCc2ccccc2)cc1 [Example 85, 5-{[2-(4-methoxyphenyl)-2-methylpropanoyl](3-phenylpropyl)amino}pentanoic Acid] | 12
> 10000 | > 30000 | 39 | COc1cccc(C2(C(=O)N(CCCCC(=O)O)CCCc3ccccc3)CC2)c1 [Example 82, 5-{[1-(3-methoxyphenyl)cyclopropane-1-carbonyl](3-phenylpropyl)amino}pentanoic Acid] | 2
> 10000 | > 30000 | 25 | COc1ccc(C(=O)N(CCCCC(=O)O)CCCc2ccccc2)cc1OC [Example 83, 5-[(3,4-dimethoxybenzoyl)(3-phenylpropyl)amino]pentanoic Acid] | 11
> 10000 | > 30000 | 31 | COc1cc(C(=O)N(CCCCC(=O)O)CCCc2ccccc2)ccc1F [Example 81, 5-[(4-fluoro-3-methoxybenzoyl)(3-phenylpropyl)amino]pentanoic Acid] | 33
